Experimental data from publication PMC1065314, “A2B adenosine receptor activity is reduced in neutrophils from patients with systemic sclerosis” (Arthritis Research & Therapy, 2004).

target: T1, A2B adenosine receptor (Homo sapiens, UniProt P29275); test: [3H]NECA binding to A2B AR in neutrophil membranes (plus CPA and SCH58261); settings: read-out: [^3H]NECA Ki; control neutrophil membranes; competition with 20 nmol/l [3H]NECA plus 50 nmol/l CPA and 100 nmol/l SCH58261; mean ± SEM of three experiments; Cheng and Prusoff
T1 construct: Aliquots of neutrophil membranes (0.2–0.4 mg proteins) were incubated in a final volume of 250 μl T2 buffer; from tissue; host or cells: neutrophils from healthy volunteers and systemic sclerosis patients (membranes)
T1 sequence (P29275 1-332): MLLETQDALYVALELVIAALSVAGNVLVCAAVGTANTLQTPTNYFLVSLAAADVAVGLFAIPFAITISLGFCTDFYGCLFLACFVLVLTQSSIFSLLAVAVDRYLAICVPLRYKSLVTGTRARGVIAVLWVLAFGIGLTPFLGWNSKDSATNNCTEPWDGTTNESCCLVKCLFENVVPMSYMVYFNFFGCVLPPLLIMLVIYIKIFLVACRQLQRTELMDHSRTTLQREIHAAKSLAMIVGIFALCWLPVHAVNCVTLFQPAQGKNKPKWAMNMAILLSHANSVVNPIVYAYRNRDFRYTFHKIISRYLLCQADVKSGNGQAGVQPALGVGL
Protocol: For membrane preparation, cells were washed twice with 10 mmol/l Tris-HCl buffer, pH 7.4, containing 10 mmol/l MgCl2, in the presence of protease inhibitors (200 μg/ml bacitracine, 160 μg/ml benzamidine, 20 μg/ml trypsin inhibitor [T1]) and centrifuged at 48,000 g for 15 min at 4°C. Pellets were diluted in 20 volumes of T1 buffer, treated with ADA (2 IU/ml) for 60 min at 37°C to remove endogenous adenosine, and washed twice with 50 mmol/l Tris-HCl buffer, pH 7.4, containing 10 mmol/l MgCl2 (T2).
Aliquots of neutrophil membranes (0.2–0.4 mg proteins) were incubated in a final volume of 250 μl T2 buffer. […] After 90 min incubation at 0°C, the reaction was terminated either by vacuum filtration through Whatman GF/C glass fibre filters, accompanied by three washes with ice-cold T2 buffer (4 ml), or by centrifugation at 2900 g for 15 min at 4°C. A2B AR specificity was evaluated through competition experiments, using different AR ligands.

Row | SMILES | Ki [nM]
1 | Nc1nc(Cl)nc2c1ncn2[C@@H]1O[C@H](CO)[C@@H](O)[C@H]1O [2 Cl-adenosine] | 954 ± 600
2 | CCCn1c(=O)c2[nH]c(-c3ccc(OCC(=O)Nc4ccc(C(C)=O)cc4)cc3)nc2n(CCC)c1=O [MRS1706] | 5 ± 0.3
3 | O=C(Cc1ccccc1)Nc1nc2ccc(Cl)cc2c2nc(-c3ccco3)nn12 [MRS1220] | > 10000
